Results reported in patent US20230102554A1 (GB002, INC., priority 2019, published 2023).

Assays:
[1] = molecular target: T1, Human PDGFRα, cytoplasmic domain (GST-PDGFRα) (Homo sapiens, UniProt P16234); assay: Human PDGFRα biochemical inhibition assay (off-chip Mobility Shift Assay)
T1 construct: made in house

[2] = molecular target: T2, Human PDGFRβ, cytoplasmic domain (GST-PDGFRβ) (Homo sapiens, UniProt P09619); assay: Human PDGFRβ biochemical inhibition assay (off-chip Mobility Shift Assay)
T2 construct: made in house
T2 sequence (P09619 with tags, fused parts or gaps): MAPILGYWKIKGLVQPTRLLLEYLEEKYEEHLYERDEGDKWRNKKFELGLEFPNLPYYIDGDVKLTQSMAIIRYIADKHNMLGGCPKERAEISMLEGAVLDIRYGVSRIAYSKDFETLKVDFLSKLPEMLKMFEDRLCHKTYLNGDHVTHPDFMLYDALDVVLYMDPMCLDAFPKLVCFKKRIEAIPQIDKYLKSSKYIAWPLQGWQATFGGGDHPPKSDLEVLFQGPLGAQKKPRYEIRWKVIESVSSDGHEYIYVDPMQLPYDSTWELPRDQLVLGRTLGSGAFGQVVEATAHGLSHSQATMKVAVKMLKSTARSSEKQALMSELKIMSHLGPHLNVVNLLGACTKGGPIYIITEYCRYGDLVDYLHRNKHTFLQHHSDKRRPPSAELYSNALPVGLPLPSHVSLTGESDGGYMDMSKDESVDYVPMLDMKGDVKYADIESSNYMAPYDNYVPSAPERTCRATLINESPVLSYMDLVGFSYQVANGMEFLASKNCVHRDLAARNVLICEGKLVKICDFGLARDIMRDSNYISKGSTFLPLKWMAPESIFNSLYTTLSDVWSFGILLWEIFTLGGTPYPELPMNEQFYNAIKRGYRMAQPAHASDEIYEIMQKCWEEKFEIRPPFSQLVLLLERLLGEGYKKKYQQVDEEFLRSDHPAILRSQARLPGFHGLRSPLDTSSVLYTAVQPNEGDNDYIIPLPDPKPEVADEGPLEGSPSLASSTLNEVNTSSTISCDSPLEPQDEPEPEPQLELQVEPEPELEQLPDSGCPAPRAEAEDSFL
Outline: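 GST-tagged cytoplasmic domain (aa 557-1106) from baculovirus was incubated 1 h at room temperature with compound, CSKtide, ATP at Km and Mg²⁺ in HEPES buffer, pH 7.5. Phosphorylated and unphosphorylated peptide were separated by off-chip mobility shift, and the product ratio P/(P+S) gave percent inhibition.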

T1 sequence (P16234 550-1089 T674I): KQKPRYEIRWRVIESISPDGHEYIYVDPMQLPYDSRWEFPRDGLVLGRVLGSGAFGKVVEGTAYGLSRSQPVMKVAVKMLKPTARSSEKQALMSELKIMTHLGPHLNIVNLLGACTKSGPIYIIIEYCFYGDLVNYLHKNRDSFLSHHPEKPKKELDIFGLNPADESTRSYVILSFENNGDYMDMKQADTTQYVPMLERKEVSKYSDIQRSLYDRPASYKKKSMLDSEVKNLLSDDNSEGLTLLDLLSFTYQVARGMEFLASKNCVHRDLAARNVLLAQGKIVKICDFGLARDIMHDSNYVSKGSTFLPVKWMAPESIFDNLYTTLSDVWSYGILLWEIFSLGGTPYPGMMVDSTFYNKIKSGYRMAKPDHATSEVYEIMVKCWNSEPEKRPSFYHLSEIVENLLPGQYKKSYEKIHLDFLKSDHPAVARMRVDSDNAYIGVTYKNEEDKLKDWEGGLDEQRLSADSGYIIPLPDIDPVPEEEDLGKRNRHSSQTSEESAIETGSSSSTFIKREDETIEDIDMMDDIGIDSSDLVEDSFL

Compound | IC50 [1] [nM] | IC50 [2] [nM]
CCn1cc2ncc(N[C@@H](C)c3cc(NC(=O)Cc4ccc(F)cn4)ccc3C)nc2n1 [Compound 656, (S)-N-(3-(1-((2-ethyl-2H-pyrazolo[3,4-b]pyrazin-6-yl)amino)ethyl)-4-methylphenyl)-2-(5-fluoropyridin-2-yl) acetamide] | < 300 | < 300
CCn1cc2ncc(N[C@@H](C)c3cc(NC(=O)Cc4ccc(Cl)cn4)ccc3C)nc2n1 [Compound 657, (S)-2-(5-chloropyridin-2-yl)-N-(3-(1-((2-ethyl-2H-pyrazolo[3,4-b]pyrazin-6-yl)amino)ethyl)-4-methylphenyl)acetamide] | < 300 | < 300
CCn1cc2ncc(N[C@@H](C)c3cc(NC(=O)Cc4ccc(C5CC5)nc4)ccc3F)nc2n1 [Compound 658, (S)-2-(6-cyclopropylpyridin-3 - yl)-N-(3-(1-((2-ethyl-2H-pyrazolo[3,4-b]pyrazin-6-yl)amino)ethyl)-4-fluorophenyl) acetamide] | 300 to 1000 | ≥ 1000
CCn1cc2ncc(N[C@@H](C)c3cc(NC(=O)Cc4cncc(F)c4)ccc3C)nc2n1 [Compound 659, (S)-N-(3-(1-((2-ethyl-2H-pyrazolo[3,4-b]pyrazin-6-yl)amino)ethyl)-4-methylphenyl)-2-(5-fluoropyridin-3-yl) acetamide] | < 300 | < 300
CCn1cc2ncc(N[C@@H](C)c3cc(NC(=O)Cc4ccc(C)cn4)ccc3C)nc2n1 [Compound 660, (S)-N-(3-(1-((2-ethyl-2H-pyrazolo[3,4-b]pyrazin-6-yl)amino)ethyl)-4-methylphenyl)-2-(5-methylpyridin-2-yl) acetamide] | < 300 | 300 to 1000
CCn1cc2ncc(N[C@@H](C)c3cc(NC(=O)Cc4ccc(C(F)(F)F)cn4)ccc3C)nc2n1 [Compound 661, (S)-N-(3-(1-((2-ethyl-2H-pyrazolo[3,4-b]pyrazin-6-yl)amino)ethyl)-4-methylphenyl)-2-(5-(trifluoromethyl)pyridin-2-yl)acetamide] | < 300 | 300 to 1000
CCn1cc2ncc(N[C@@H](C)c3cc(NC(=O)Cc4ccc(C5CC5)cn4)ccc3C)nc2n1 [Compound 662, (S)-2-(5-cyclopropylpyridin-2-yl)-N-(3-(1-((2-ethyl-2H-pyrazolo[3,4-b]pyrazin-6-yl)amino)ethyl)-4-methylphenyl) acetamide] | < 300 | ≥ 1000
CCn1cc2ncc(N[C@@H](C)c3cc(NC(=O)Cc4cncc(Cl)c4)ccc3F)nc2n1 [Compound 663, (S)-2-(5-chloropyridin-3-yl)-N-(3-(1-((2-ethyl-2H-pyrazolo[3,4-b]pyrazin-6-yl)amino)ethyl)-4-fluorophenyl)acetamide] | < 300 | 300 to 1000
CCn1cc2ncc(N[C@@H](C)c3cc(NC(=O)Cc4ccc(C)nc4)ccc3C)nc2n1 [Compound 664, (S)-N-(3-(1-((2-ethyl-2H-pyrazolo[3,4-b]pyrazin-6-yl)amino)ethyl)-4-methylphenyl)-2-(6-methylpyridin-3-yl) acetamide] | < 300 | ≥ 1000
CCn1cc2ncc(N[C@@H](C)c3cc(NC(=O)Cc4ccc(C5CC5)nc4)ccc3C)nc2n1 [Compound 665, (S)-2-(6-cyclopropylpyridin-3-yl)-N-(3-(1-((2-ethyl-2H-pyrazolo[3,4-b]pyrazin-6-yl)amino)ethyl)-4-methylphenyl) acetamide] | < 300 | ≥ 1000
CCn1cc2ncc(N[C@@H](C)c3cc(NC(=O)Cc4cncc(C)c4)ccc3C)nc2n1 [Compound 666, (S)-N-(3-(1-((2-ethyl-2H-pyrazolo[3,4-b]pyrazin-6-yl)amino)ethyl)-4-methylphenyl)-2-(5-methylpyridin-3-yl) acetamide] | < 300 | < 300
CCn1cc2ncc(N[C@@H](C)c3cc(NC(=O)Cc4ccc(C5CCC5)cn4)ccc3F)nc2n1 [Compound 667, (S)-2-(5-cyclobutylpyridin-2-yl)-N-(3-(1-((2-ethyl-2H-pyrazolo[3,4-b]pyrazin-6-yl)amino)ethyl)-4-fluorophenyl) acetamide] | < 300 | ≥ 1000
